# Several values for one entry are separate records, joined by “and”; a condition that tells them apart may be missing. Identical values can stand only once.
# Assays:
# [1] = Cytotoxicity, cell viability assay in normal cells; format: cell-based, human; details: human, relative cell viability (Fig 6a), replicates
# Text: (§1) Human peripheral blood mononuclear cells (PBMCs), normal T-cells and B-cells were provided by the University of Pennsylvania Human Immunology Core (HIC), and Patient-derived xenografts (PDXs) were obtained from Fox Chase Cancer Center (FCCC). These samples were from different unidentified and healthy donors with written, informed consent. All the procedures were approved by the Institutional Review Board (IRB) and conducted according to the declarations of Helsinki protocols.
# (§2) 5000 cells as indicated were cultured in 96-well plate with 100 μl of media. […] After treatment, the cells were incubated with 100 μl buffer for 10 min at room temperature following the instructions of CellTiter-Glo kit (Promega, Madison, WI). Luminescence was detected using a multi-mode reader Cytation 5 (BioTek, Winooski, VT). […] Two independent experiments done in duplicates were performed.
# [2] = Cytotoxicity, cell viability assay in normal cells; format: cell-based; details: human, replicates
# Text: as §1, §2
# [3] = In vivo toxicity test, survival rate; set-up: species or system NOD/SCID mice
# Protocol: The survival rate was recorded to monitor the tolerance of the compounds in these mice.
# [4] = test system: MOLM14 cells; experiment: Cell viability assay (CellTiter-Glo luminescence); format: cell-based; details: Homo sapiens
# Protocol: as §2
# [5] = test system: MOLM14 xenografts; experiment: In vivo tumorigenic assay using xenografts, tumor size; set-up: species or system NOD/SCID mice; key to tumor size (Fig 5d&5e), individual mice: tumor volume in mm^3, calculated as (a × b × b)/2; details: for tumor size (Fig 5d&5e), individual mice: MOLM14 xenograft
# Protocol: (§3) Six-week-old male NOD.CB17-Prkdc^scid/J (NOD/SCID) mice (Jackson Labs, Bar Harbor, ME, USA) were used as the human-in-mouse xeno-transplantation model. MOLM14 cells (1 × 10^7 cells) were injected into the subcutaneous space on the left flank of the mice. […] Body weight and tumor size were monitored before every injection. After treatment for 2 weeks, the mice were euthanized by CO2 inhalation and the tumors were carefully excised. The tumor volume (mm^3) was measured and calculated using the formula (a × b × b)/2 (a, the largest diameter of two measurements; b, the smallest diameter of two measurements).
# [6] = test system: Raji cells; experiment: Cell viability assay (CellTiter-Glo luminescence); format: cell-based, human; details: Homo sapiens; for IC50: analogs, 72 h, Fig. 5c, read-out: IC50
# Protocol: as §2
# [7] = test system: SU-DHL-4 cells; experiment: Cell viability assay (CellTiter-Glo luminescence); format: cell-based, human; details: Homo sapiens, SU-DHL-4, 144 h
# Protocol: as §2
# [8] = test system: MOLM14 xenografts; experiment: mRNA expression in xenograft tumors in vivo; set-up: species or system NOD/SCID mice; details: xenograft tumors of treated mice
# Protocol: Real-time PCR experiments were performed as previously described. The experiments were performed in triplicate.
# as §3
# [9] = test system: Raji cells; experiment: Western blot of PI3K/AKT signaling proteins; format: cell-based, human; details: Raji, 0, 50 nM, 100 nM; 0, 12 h, 24 h
# Protocol: Western blot analyses were performed as previously described. Briefly, total cell lysates were separated by SDS-PAGE gel and transferred to nitrocellulose membrane. The membranes were blocked with 5% non-fat milk, probed with specific antibodies, and visualized using the Odyssey scanner (LiCor Inc., Lincoln, NE).
# [10] = test system: hematologic malignancies derived cell lines; experiment: Cell viability assay, panel of hematologic malignancy derived cell lines; format: cell-based, human; details: 100 nM, 72 h, lymphoma, leukemia and multiple myeloma cell lines (13 cell lines for analogs)
# Protocol: 5000 cells as indicated were cultured in 96-well plate with 100 μl of media. On the next day, Brusatol or associated analogs were added once to the cells without media change. After treatment, the cells were incubated with 100 μl buffer for 10 min at room temperature following the instructions of CellTiter-Glo kit (Promega, Madison, WI). Luminescence was detected using a multi-mode reader Cytation 5 (BioTek, Winooski, VT). […] Two independent experiments done in duplicates were performed.
# [11] = test system: PBMC; experiment: Cytotoxicity, cell viability assay in normal cells; format: cell-based, human; details: Fig 5c
# Text: as §1, §2
# [12] = Body weight of xenograft mice; format: in vivo, NOD/SCID mice; details: individual mice, Fig S3i, in g (unit assumed)
# Protocol: as §3
# [13] = relative cell viability (Fig 6b)
# [14] = relative cell viability (Fig 6c)
smiles,measurement,setting,value
COC(=O)C12OCC34C(CC5C(C)=C(OC(=O)CC(C)N)C(=O)CC5(C)C3C(O)C1O)OC(=O)C(OC(=O)C=C(C)C)C24 (stereo not drawn) [#26],viability at 0.000244141 μM,[1],103%
same,viability at 0.00390625 μM,[1],85%
same,viability at 0.015625 μM,[1],83.1%
same,viability at 0.0625 μM,[1],80.7%
same,viability at 1 μM,[1],61.8%
same,viability at 0.000244141 μM,[2]; [13],96.2%
same,viability at 0.00390625 μM,[2]; [13],86%
same,viability at 0.015625 μM,[2]; [13],81.6%
same,viability at 0.0625 μM,[2]; [13],74.5%
same,viability at 1 μM,[2]; [13],82.6%
same,viability at 0.000244141 μM,[2]; [14],111%
same,viability at 0.00390625 μM,[2]; [14],112%
same,viability at 0.015625 μM,[2]; [14],115%
same,viability at 1 μM,[2]; [14],93.8%
same,toxicity in vivo (survival),"[3]; 10 mg/kg intraperitoneally every other day, monitored 24 days, 4 mice per group",did not show any obvious signs of toxicity
same,"survival event status per mouse (Fig 6i; 1 = event/death, 0 = censored)","[3]; 10mg/kg, Days Post-treatment 24",0
same,viability at 0.0390625 µM,"[4]; MOLM-14, read-out: relative cell viability (Fig 6e), replicates, MOLM14, Con. 0.0390625 μM, fraction of 0 μM control",12.5%
same,viability at 0.15625 µM,"[4]; MOLM-14, read-out: relative cell viability (Fig 6e), replicates, MOLM14, Con. 0.15625 μM, fraction of 0 μM control",7.37%
same,viability at 0.625 µM,"[4]; MOLM-14, read-out: relative cell viability (Fig 6e), replicates, MOLM14, Con. 0.625 μM, fraction of 0 μM control",5.55%
same,viability at 10 µM,"[4]; MOLM-14, read-out: relative cell viability (Fig 6e), replicates, MOLM14, Con. 10 μM, fraction of 0 μM control",4.05%
same,"tumor size, inhibitory response","[5]; 2 mg/kg intraperitoneally three times per week, 2 weeks, vs PBS control",strong and rapid inhibitory response
same,"tumor size (Fig 5d&5e), individual mice",[5]; 0d,50.8503 and 81.4689 and 79.571 and 83.4481 and 51.3256 and 101.436
same,"tumor size (Fig 5d&5e), individual mice",[5]; 2d,106.443 and 103.871 and 87.5139 and 68.1449 and 136.175 and 126.294
same,"tumor size (Fig 5d&5e), individual mice",[5]; 4d,67.7106 and 172.977 and 64.3385 and 73.9417 and 166.255 and 100.157
same,"tumor size (Fig 5d&5e), individual mice",[5]; 6d,174.013 and 301.003 and 181.944 and 99.2269 and 96.1716 and 48.5716
same,"tumor size (Fig 5d&5e), individual mice",[5]; 8d,185.825 and 124.577 and 101.125 and 181.307 and 468.229 and 312.088
same,"tumor size (Fig 5d&5e), individual mice",[5]; 10d,259.199 and 230.595 and 161.819 and 478.339 and 646.864 and 395.944
same,"tumor size (Fig 5d&5e), individual mice",[5]; 12d,359.944 and 415.708 and 136.428 and 853.399 and 887.802 and 629.337
same,IC50,[6],37.6 nM
same,viability at 0.00244141 µM,"[6]; read-out: relative cell viability (Fig 6f), replicates, Raji, Con. 0.00244141 μM, fraction of 0 μM control",105%
same,viability at 0.0390625 µM,"[6]; read-out: relative cell viability (Fig 6f), replicates, Raji, Con. 0.0390625 μM, fraction of 0 μM control",35%
same,viability at 0.15625 µM,"[6]; read-out: relative cell viability (Fig 6f), replicates, Raji, Con. 0.15625 μM, fraction of 0 μM control",16.4%
same,viability at 0.625 µM,"[6]; read-out: relative cell viability (Fig 6f), replicates, Raji, Con. 0.625 μM, fraction of 0 μM control",7.06%
same,viability at 10 µM,"[6]; read-out: relative cell viability (Fig 6f), replicates, Raji, Con. 10 μM, fraction of 0 μM control",4.98%
same,viability at 0.00244141 µM,"[7]; read-out: relative cell viability (Fig 6d), replicates, SU-DHL-4, Con. 0.00244141 μM, fraction of 0 μM control",125%
same,viability at 0.0390625 µM,"[7]; read-out: relative cell viability (Fig 6d), replicates, SU-DHL-4, Con. 0.0390625 μM, fraction of 0 μM control",36.6%
same,viability at 0.15625 µM,"[7]; read-out: relative cell viability (Fig 6d), replicates, SU-DHL-4, Con. 0.15625 μM, fraction of 0 μM control",18.6%
same,viability at 0.625 µM,"[7]; read-out: relative cell viability (Fig 6d), replicates, SU-DHL-4, Con. 0.625 μM, fraction of 0 μM control",9.14%
same,viability at 10 µM,"[7]; read-out: relative cell viability (Fig 6d), replicates, SU-DHL-4, Con. 10 μM, fraction of 0 μM control",6.62%
same,PIK3CG and GSK3B mRNA expression in vivo,[8],inhibited
same,"suppression of AKT1, GSK3, and mTOR levels",[9],largely similar to Brusatol
same,inhibition of cell viability in panel of cell lines,[10],significantly inhibit
COC(=O)C12OCC34C(CC5C(C)=C(OC(=O)C6CCCN6)C(=O)CC5(C)C3C(O)C1O)OC(=O)C(OC(=O)C=C(C)C)C24 (stereo not drawn) [#31],"Cell viability, raw luminescence reading",[11]; Con. 0.01 μM,21395 and 22004
same,"Cell viability, raw luminescence reading",[11]; Con. 0.039 μM,12976 and 10747
same,"Cell viability, raw luminescence reading",[11]; Con. 0.156 μM,7357 and 6947
same,"Cell viability, raw luminescence reading",[11]; Con. 0.625 μM,8946 and 8046
same,"Cell viability, raw luminescence reading",[11]; Con. 10 μM,8102 and 7279
same,Body weight,[12]; 0d,25.68 and 24.55 and 25.16 and 23.48
same,Body weight,[12]; 2d,27.27 and 26.58 and 25.38 and 25.93 and 25.43 and 23.7
same,Body weight,[12]; 4d,26.97 and 26.67 and 25.81 and 25.44 and 25.69
same,Body weight,[12]; 6d,27.97 and 26.96 and 26.09
same,Body weight,[12]; 8d,28.38 and 27.82 and 26.73 and 25.66
same,Body weight,[12]; 10d,28.24 and 27.47 and 25.9 and 26.82 and 26.06
same,Body weight,[12]; 12d,29.56 and 29.11 and 26.31 and 27.31
same,"tumor size (Fig 5d&5e), individual mice",[5]; 0d,74.2529 and 62.0281 and 101.973 and 60.5009 and 91.8956 and 82.6996
same,"tumor size (Fig 5d&5e), individual mice",[5]; 2d,107.191 and 120.034 and 71.2216 and 100.836 and 98.4479 and 88.2667
same,"tumor size (Fig 5d&5e), individual mice",[5]; 4d,99.5578 and 195.79 and 71.7513 and 67.0262 and 52.5262 and 97.4505
same,"tumor size (Fig 5d&5e), individual mice",[5]; 6d,95.2698 and 78.8527 and 143.077 and 70.9567 and 158.17 and 228.179
same,"tumor size (Fig 5d&5e), individual mice",[5]; 8d,324.747 and 668.944 and 318.873 and 96.919 and 128.11 and 346.937
same,"tumor size (Fig 5d&5e), individual mice",[5]; 10d,458.137 and 927.585 and 502.969 and 200.67 and 236.721 and 666.334
same,"tumor size (Fig 5d&5e), individual mice",[5]; 12d,959.947 and 1557.75 and 485.372 and 249.92 and 359.5 and 1074.17
same,IC50,[6],36.5 nM
same,inhibition of cell viability in panel of cell lines,[10],significantly inhibit

# From paper PMC7253423, “Quassinoid analogs with enhanced efficacy for treatment of hematologic malignancies target the PI3Kγ isoform” (Communications Biology, 2020)
